Laboratory results as given in publication PMC9182348, “Adamantane-Monoterpenoid Conjugates Linked via Heterocyclic Linkers Enhance the Cytotoxic Effect of Topotecan” (Molecules, 2022).
Entries after “also recorded” stand apart in the source; their conditions may differ.

Tests used:
[1] = Influence of compounds on topotecan cytotoxicity, HEK293A; assay type: cell-based, human; settings: human, HEK293A cells; topotecan alone; read-out: Tpc CC50 HEK293A
Procedure: (§1) Then, we tested the ability of the adamantane–monoterpenoid derivatives to sensitize cells to the action of topotecan. For this, we chose a low-toxic concentration 20 μM and varied the concentrations of topotecan (Supplementary Figure S3).
(§2) In the reverse experiment, when the concentrations of the compounds were varied with 30 nM topotecan (in the experiments with HEK293A cells) or 3 μM topotecan (in the experiments with HeLa cells), respectively, a noticeable synergistic effect on HeLa cells was already observed at low concentrations of TDP1 inhibitors (1 and 5 μM) (Supplementary Figure S4). Given that the IC50 values for these compounds are >5 μM, this also indicates the presence of other targets in addition to TDP1.
(§3) The cytotoxicity of the compounds to HeLa (human cervical cancer) and HEK293A (human embryonic kidney) cell lines was examined using the EZ4U Cell Proliferation and Cytotoxicity Assay (Biomedica, Vienna, Austria), according to the manufacturer’s protocols. The cells were grown in DMEM (Dulbecco’s Modified Eagle’s Medium) with 50 IU/mL penicillin, 50 μg/mL streptomycin (MP Biomedicals, Santa Ana, CA, USA), and 10% of fetal bovine serum (Biolot, St. Petersburg, Russia) in a 5% CO2 atmosphere. After formation of a 30–50%-monolayer, the tested compounds were added to the medium. The volume of the added reagents was 1/100 of the total volume of the culture medium, and the amount of DMSO (Sigma, St. Louis, MO, USA) was 1% of the final volume. The cell culture was monitored for 3 days. To assess the influence of the inhibitors on the cytotoxic effect of topotecan (Selleck Chemicals, Houston, TX, USA), 50% cytotoxic concentrations of topotecan and of each inhibitor were determined to attain a defined single-agent effect. Then, a minimum of two independent tests were performed with each inhibitor in combination with topotecan. When using a combination of drugs, TDP1 inhibitors were first added, then topotecan was added immediately (within 10–15 min).

HeLa cells [2] = assay: Influence of compounds on topotecan cytotoxicity, HeLa; assay type: cell-based; settings: Homo sapiens, topotecan alone, read-out: Tpc CC50 HeLa
Procedure: as §1, §2
The cytotoxicity of the compounds to HeLa (human cervical cancer) and HEK293A (human embryonic kidney) cell lines was examined using the EZ4U Cell Proliferation and Cytotoxicity Assay (Biomedica, Vienna, Austria), according to the manufacturer’s protocols. […] The cell culture was monitored for 3 days. To assess the influence of the inhibitors on the cytotoxic effect of topotecan (Selleck Chemicals, Houston, TX, USA), 50% cytotoxic concentrations of topotecan and of each inhibitor were determined to attain a defined single-agent effect. […]

TDP1 = TDP1 (Homo sapiens, UniProt Q9NUW8); assay: TDP1 activity, real-time fluorescence biosensor assay; assay type: biochemical
TDP1, sequence (Q9NUW8 whole entry): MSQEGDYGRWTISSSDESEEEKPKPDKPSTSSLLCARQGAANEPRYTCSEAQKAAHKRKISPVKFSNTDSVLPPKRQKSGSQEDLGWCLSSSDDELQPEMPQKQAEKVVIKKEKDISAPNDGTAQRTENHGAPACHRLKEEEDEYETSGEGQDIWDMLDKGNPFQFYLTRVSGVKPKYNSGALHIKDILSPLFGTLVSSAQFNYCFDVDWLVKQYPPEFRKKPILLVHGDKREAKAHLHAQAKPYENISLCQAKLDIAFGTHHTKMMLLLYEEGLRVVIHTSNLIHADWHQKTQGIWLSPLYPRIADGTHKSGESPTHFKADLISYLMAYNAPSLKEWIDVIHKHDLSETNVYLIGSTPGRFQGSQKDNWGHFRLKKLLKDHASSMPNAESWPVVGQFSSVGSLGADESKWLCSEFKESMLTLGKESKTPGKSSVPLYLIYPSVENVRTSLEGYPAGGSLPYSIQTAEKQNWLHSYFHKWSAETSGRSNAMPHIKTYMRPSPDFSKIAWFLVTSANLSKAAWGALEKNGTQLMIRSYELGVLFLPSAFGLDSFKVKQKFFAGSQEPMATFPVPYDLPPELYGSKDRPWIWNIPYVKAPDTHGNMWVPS

HeLa cells [3] = assay: Combination index (CI) of topotecan and TDP1 inhibitors, CompuSyn; assay type: cell-based, human
Procedure: For HeLa cells, we calculated the combination index (CI), the parameter that is used to determine the degree of drug interaction. The combination index (CI) values for the different concentrations (Supplementary Figure S3) of topotecan and TDP1 inhibitors were less than one, and for some compounds less than 0.1 (Supplementary Table S1). This indicates a strong synergistic effect of topotecan and […]. The CI values were calculated with the CompuSyn version 1.0 software.
as §3

[4] = Intrinsic cytotoxicity, EZ4U assay, HEK293A; assay type: cell-based; settings: human, HEK293A cells, compound alone
Procedure: (§4) Next, we tested the compounds’ intrinsic toxicity against cervical cancer HeLa cells and non-cancerous HEK293A immortalized human embryonic kidney cells using the EZ4U assay format.
as §3

HeLa cells [5] = assay: Intrinsic cytotoxicity, EZ4U assay, HeLa; assay type: cell-based, human; settings: HeLa and HEK293A cells
Procedure: as §4, §3

[6] = Intrinsic cytotoxicity, EZ4U assay, HeLa; assay type: cell-based, human; settings: human, HeLa cells, compound alone, 3 days
Procedure: as §4, §3

HEK293A cells = assay: Influence of compounds on topotecan cytotoxicity, HEK293A; assay type: cell-based, human
Procedure: as §1, §2, §3

SMILES	IC50 (TDP1)	melting point	Effect (HeLa cells [3]; Tpc 0.3 µM + 20 µM compound)	Effect (HeLa cells [3]; Tpc 0.6 µM + 20 µM compound)	CI (HeLa cells [3]; Tpc 2.5 µM + 20 µM compound)	Effect (HeLa cells [3]; Tpc 2.5 µM + 20 µM compound)	CI (HeLa cells [3]; Tpc 5.0 µM + 20 µM compound)	Effect (HeLa cells [3]; Tpc 5.0 µM + 20 µM compound)	Effect (HeLa cells [3]; Tpc […] + 20 µM compound)	CC50 at 3 days [4]	intrinsic toxicity (in words) (HeLa cells [5])	CC50 at 3 days [6]	also measured
CC[C@@]1(O)C(=O)OCc2c1cc1n(c2=O)Cc2cc3c(CN(C)C)c(O)ccc3nc2-1 [Tpc, topotecan]													CC50 at 3 days [1]: 0.066 ± 0.028 µM; CC50 (HeLa cells [2]): 4 ± 1.3 µM
CC1(C)[C@@H]2CC[C@@]1(C(=O)Nc1nnc(C34CC5CC(CC(C5)C3)C4)s1)C(=O)C2 [compound 16, (1S,4R)-N-(5-(Adamantan-1-yl)-1,3,4-thiadiazol-2-yl)-7,7-dimethyl-2-oxobicyclo[2.2.1]heptane-1-carboxamide]	> 30 µM	269.6 °C	0.035	0.1	0.5114	0.75	0.8721	0.85	0.36	23 ± 10 µM	moderate toxicity	20 ± 8 µM	anti-TDP1 activity (in words) (TDP1): not exhibiting anti-TDP1 activity; also recorded: ineffective
CC1(C)[C@@H]2CC[C@@]1(CS(=O)(=O)Nc1nnc(C34CC5CC(CC(C5)C3)C4)s1)C(=O)C2 [compound 17, N-(5-(Adamantan-1-yl)-1,3,4-thiadiazol-2-yl)-1-((1S,4R)-7,7-dimethyl-2-oxobicyclo[2.2.1]heptan-1-yl)methanesulfonamide]	> 30 µM	200.3 to 200.5 °C	1.0E-4	0.02	0.7924	0.6	1.176	0.81	0.25	> 100 µM		100 ± 20 µM	anti-TDP1 activity (in words) (TDP1): not exhibiting anti-TDP1 activity; also recorded: ineffective

Continued, in another order:

IC50 (TDP1)	melting point	SMILES	Effect (HeLa cells [3]; Tpc 0.3 µM + 20 µM compound)	Effect (HeLa cells [3]; Tpc 0.6 µM + 20 µM compound)	CI (HeLa cells [3]; Tpc 2.5 µM + 20 µM compound)	Effect (HeLa cells [3]; Tpc 2.5 µM + 20 µM compound)	CI (HeLa cells [3]; Tpc 5.0 µM + 20 µM compound)	Effect (HeLa cells [3]; Tpc 5.0 µM + 20 µM compound)	Effect (HeLa cells [3]; Tpc […] + 20 µM compound)	CC50 at 3 days [4]	intrinsic toxicity (in words) (HeLa cells [5])	CC50 at 3 days [6]	also measured
5.5 ± 1.5 µM	113.5 °C	CC1=CC[C@H](CCSc2nc(C34CC5CC(CC(C5)C3)C4)n[nH]2)C1(C)C [14a, 3-(Adamantan-1-yl)-5-((2-((R)-2,2,3-trimethylcyclopent-3-en-1-yl)ethyl)thio)-1H-1,2,4-triazole]	0.17	0.47	0.4461	0.92	0.7177	0.96	0.81	47 ± 3 µM	moderate toxicity	53 ± 8 µM	CI (HeLa cells [3]; Tpc […] + 20 µM compound): 0.2872; effect on the action of topotecan on HEK293A cells (in words) (HEK293A cells): protected HEK293A cells from the action of topotecan
6.1 ± 0.1 µM	111.8 to 112.4 °C	CC1=CC[C@@H](CCSc2nc(C34CC5CC(CC(C5)C3)C4)n[nH]2)C1(C)C [14b, 3-(Adamantan-1-yl)-5-((2-((S)-2,2,3-trimethylcyclopent-3-en-1-yl)ethyl)thio)-1H-1,2,4-triazole]	0.94							50 ± 3 µM	moderate toxicity	54 ± 7 µM	CI (HeLa cells [3]; Tpc 0.3 µM + 20 µM compound): 0.00419; CI (HeLa cells [3]; Tpc 0.5 µM + 20 µM compound): 0.00165; Effect (HeLa cells [3]; Tpc 0.5 µM + 20 µM compound): 0.97; CI (HeLa cells [3]; Tpc 1.0 µM + 20 µM compound): 0.00117; Effect (HeLa cells [3]; Tpc 1.0 µM + 20 µM compound): 0.98; CI (HeLa cells [3]; Tpc 2.0 µM + 20 µM compound): 0.00166; Effect (HeLa cells [3]; Tpc 2.0 µM + 20 µM compound): 0.98; CI (HeLa cells [3]; Tpc 4.0 µM + 20 µM compound): 0.00113; Effect (HeLa cells [3]; Tpc 4.0 µM + 20 µM compound): 0.99
6.1 ± 2.6 µM	209.2 to 210.1 °C	CC1=CC[C@H](CC(=O)Nc2nnc(C34CC5CC(CC(C5)C3)C4)s2)C1(C)C [15a, N-(5-(Adamantan-1-yl)-1,3,4-thiadiazol-2-yl)-2-((R)-2,2,3-trimethylcyclopent-3-en-1-yl)acetamide]								> 100 µM		> 100 µM	Effect (HeLa cells [3]; Tpc 0.3 µM + 50 µM compound): 0.27; CI (HeLa cells [3]; Tpc 0.5 µM + 50 µM compound): 0.07887; Effect (HeLa cells [3]; Tpc 0.5 µM + 50 µM compound): 0.53; CI (HeLa cells [3]; Tpc 1.0 µM + 50 µM compound): 0.06365; Effect (HeLa cells [3]; Tpc 1.0 µM + 50 µM compound): 0.73; CI (HeLa cells [3]; Tpc 2.0 µM + 50 µM compound): 0.06893; Effect (HeLa cells [3]; Tpc 2.0 µM + 50 µM compound): 0.83; CI (HeLa cells [3]; Tpc 4.0 µM + 50 µM compound): 0.07307; Effect (HeLa cells [3]; Tpc 4.0 µM + 50 µM compound): 0.9
~5 µM	210.9 °C	CC1=CC[C@@H](CC(=O)Nc2nnc(C34CC5CC(CC(C5)C3)C4)s2)C1(C)C [15b, N-(5-(Adamantan-1-yl)-1,3,4-thiadiazol-2-yl)-2-((S)-2,2,3-trimethylcyclopent-3-en-1-yl)acetamide]								> 100 µM		> 100 µM	Effect (HeLa cells [3]; Tpc 0.3 µM + 50 µM compound): 0.48; CI (HeLa cells [3]; Tpc 0.5 µM + 50 µM compound): 0.05563; Effect (HeLa cells [3]; Tpc 0.5 µM + 50 µM compound): 0.69; CI (HeLa cells [3]; Tpc 1.0 µM + 50 µM compound): 0.04653; Effect (HeLa cells [3]; Tpc 1.0 µM + 50 µM compound): 0.84; CI (HeLa cells [3]; Tpc 2.0 µM + 50 µM compound): 0.05382; Effect (HeLa cells [3]; Tpc 2.0 µM + 50 µM compound): 0.9; CI (HeLa cells [3]; Tpc 4.0 µM + 50 µM compound): 0.09564; Effect (HeLa cells [3]; Tpc 4.0 µM + 50 µM compound): 0.91; effect on the action of topotecan on HEK293A cells (in words) (HEK293A cells): protected HEK293A cells from the action of topotecan
